Series [1] deals with Matrix metalloproteinase-14 (Homo sapiens, UniProt P50281).
Description: Competitive inhibition of human MMP14 using fluorogenic substrate by Dixon plot analysis
For a further series, the system named is Liver. Description: Half life in rat liver S9 fraction at 10 uM by UPLC analysis. It is filed as ADME, subcellular. The note with it: s9, 10 µM.
Series [2] addresses T1, Stromelysin-1 (Homo sapiens, UniProt P08254).
Target sequence in this assay (P08254 whole entry): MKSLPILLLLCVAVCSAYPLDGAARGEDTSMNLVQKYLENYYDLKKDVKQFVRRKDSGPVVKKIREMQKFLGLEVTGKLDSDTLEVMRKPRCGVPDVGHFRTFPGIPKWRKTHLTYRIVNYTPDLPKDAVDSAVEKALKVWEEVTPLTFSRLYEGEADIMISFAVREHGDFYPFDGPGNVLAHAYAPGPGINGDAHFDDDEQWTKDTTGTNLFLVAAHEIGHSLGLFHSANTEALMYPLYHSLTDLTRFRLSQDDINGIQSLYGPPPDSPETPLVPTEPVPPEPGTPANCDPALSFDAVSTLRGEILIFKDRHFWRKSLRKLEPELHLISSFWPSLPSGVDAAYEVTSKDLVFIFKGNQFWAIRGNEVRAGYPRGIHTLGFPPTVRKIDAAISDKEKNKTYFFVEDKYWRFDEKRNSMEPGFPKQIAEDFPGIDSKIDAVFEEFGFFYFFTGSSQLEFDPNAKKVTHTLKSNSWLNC
Description: Competitive inhibition of human MMP3 using fluorogenic substrate by Dixon plot analysis
In series [3] the target is 72 kDa type IV collagenase (Homo sapiens, UniProt P08253).
Description: Competitive inhibition of human MMP2 using fluorogenic substrate by Dixon plot analysis
Series [4] concerns the target Matrix metalloproteinase-9 (Homo sapiens, UniProt P14780).
Description: Competitive inhibition of human MMP9 using fluorogenic substrate by Dixon plot analysis
The target of series [5] is T1, Stromelysin-1. Description: Competitive inhibition of human MMP3 using fluorogenic substrate at 20 uM by Dixon plot analysis.
Target sequence in this assay (P08254 100-477 limits assumed): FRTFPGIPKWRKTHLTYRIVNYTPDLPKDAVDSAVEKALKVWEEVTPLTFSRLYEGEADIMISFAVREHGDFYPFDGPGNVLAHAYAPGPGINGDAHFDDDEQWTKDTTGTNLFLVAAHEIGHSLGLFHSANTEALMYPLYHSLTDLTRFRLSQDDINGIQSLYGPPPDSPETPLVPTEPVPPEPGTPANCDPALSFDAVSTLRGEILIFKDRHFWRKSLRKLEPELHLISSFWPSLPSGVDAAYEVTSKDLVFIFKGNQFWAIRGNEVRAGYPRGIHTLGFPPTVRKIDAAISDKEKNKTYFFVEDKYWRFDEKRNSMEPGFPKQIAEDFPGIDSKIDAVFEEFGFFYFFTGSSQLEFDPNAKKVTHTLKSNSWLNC
Series [6] addresses T2, Matrilysin (Homo sapiens) (UniProt P09237).
T2 sequence (whole entry): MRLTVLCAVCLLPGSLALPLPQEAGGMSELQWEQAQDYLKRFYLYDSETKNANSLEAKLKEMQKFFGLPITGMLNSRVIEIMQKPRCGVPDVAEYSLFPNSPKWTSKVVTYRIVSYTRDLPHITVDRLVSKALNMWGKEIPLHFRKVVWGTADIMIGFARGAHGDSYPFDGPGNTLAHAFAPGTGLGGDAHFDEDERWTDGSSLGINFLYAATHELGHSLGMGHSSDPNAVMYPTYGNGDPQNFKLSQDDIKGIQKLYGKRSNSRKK
Description: Competitive inhibition of human MMP7 using fluorogenic substrate at 20 uM by Dixon plot analysis.

The target of series [7] is T3, Interstitial collagenase (Homo sapiens) (UniProt P03956).
T3 sequence (whole entry): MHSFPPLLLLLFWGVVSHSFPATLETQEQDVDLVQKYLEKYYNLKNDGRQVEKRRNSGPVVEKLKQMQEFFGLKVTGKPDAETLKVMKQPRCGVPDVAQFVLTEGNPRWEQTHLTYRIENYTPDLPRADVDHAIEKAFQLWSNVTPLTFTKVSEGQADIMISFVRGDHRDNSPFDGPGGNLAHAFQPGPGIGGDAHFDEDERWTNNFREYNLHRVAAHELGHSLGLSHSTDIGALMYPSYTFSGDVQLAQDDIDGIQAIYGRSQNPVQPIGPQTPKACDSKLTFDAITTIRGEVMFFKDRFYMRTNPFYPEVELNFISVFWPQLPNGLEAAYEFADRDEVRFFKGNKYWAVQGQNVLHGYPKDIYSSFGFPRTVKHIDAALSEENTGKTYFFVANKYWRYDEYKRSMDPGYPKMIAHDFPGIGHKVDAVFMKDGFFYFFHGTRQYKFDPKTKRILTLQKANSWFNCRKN
In words: Competitive inhibition of human MMP1 using fluorogenic substrate at 20 uM by Dixon plot analysis.

Series [8] addresses T2, Matrilysin (Homo sapiens). In words: Competitive inhibition of human MMP7 using fluorogenic substrate at 125 uM by Dixon plot analysis.
Series [9] has as its target T3, Interstitial collagenase (Homo sapiens). In words: Competitive inhibition of human MMP1 using fluorogenic substrate at 100 uM by Dixon plot analysis.
The target in series [10] is T2, Matrilysin (Homo sapiens). In words: Competitive inhibition of human MMP7 using fluorogenic substrate at 10 uM by Dixon plot analysis.
The target of series [11] is T1, Stromelysin-1. Description: Competitive inhibition of human MMP3 using fluorogenic substrate at 60 uM by Dixon plot analysis.
Target sequence in this assay (P08254 100-477 limits assumed): as the sequence (P08254 100-477 limits assumed) above
Series [12] deals with T3, Interstitial collagenase (Homo sapiens). Description: Competitive inhibition of human MMP1 using fluorogenic substrate at 60 uM by Dixon plot analysis.
The subject of series [13] is Liver microsomes. In words: Drug metabolism in rat liver microsomes assessed as 4-(4-(thiiran-2-ylmethylsulfonyl)phenoxy)benzoic acid formation at 50 uM after 15 mins by tandem MS analysis. The series is classed as ADME, Microsome. The note with it: 0.25 h.
Series [14] deals with Liver microsomes. In words: Drug metabolism in rat liver microsomes assessed as 4-(4-(thiiran-2-ylmethylsulfonyl)phenoxy)benzaldehyde formation at 50 uM after 15 mins by tandem MS analysis. It is filed as ADME, Microsome. The note with it: 0.25 h.
In series [15] the test system is Liver microsomes. Description: Drug metabolism in rat liver microsomes assessed as 4-(4-(hydroxymethyl)phenoxy)benzenesulfinic acid formation at 50 uM after 15 mins by tandem MS analysis. It is filed as ADME, Microsome. The note with it: 0.25 h. In general terms: Liver microsomes are vesicles of endoplasmic reticulum, rich in cytochrome P450 enzymes.
The next series deals with T4, Interstitial collagenase (Homo sapiens, UniProt P03956).
T4 sequence (P03956 whole entry): T3 sequence (whole entry)

The target in a further series is T5, Matrilysin (Homo sapiens, UniProt P09237).
T5 sequence (P09237 whole entry): T2 sequence (whole entry)

Series [16] has as its target T3, Interstitial collagenase (Homo sapiens). Description: Competitive inhibition of human MMP1 using fluorogenic substrate at 50 uM by Dixon plot analysis.
Series [17] has as its target T2, Matrilysin (Homo sapiens). In words: Competitive inhibition of human MMP7 using fluorogenic substrate at 75 uM by Dixon plot analysis.

The source made the active and inactive calls. No cut-off for these calls is given here.

The values that follow come from ChEMBL document CHEMBL2062392, “Structure-Activity Relationship for Thiirane-Based Gelatinase Inhibitors” (ACS Med Chem Lett, 2012).

Chain of Matrix metalloproteinase-9 (P14780 whole entry): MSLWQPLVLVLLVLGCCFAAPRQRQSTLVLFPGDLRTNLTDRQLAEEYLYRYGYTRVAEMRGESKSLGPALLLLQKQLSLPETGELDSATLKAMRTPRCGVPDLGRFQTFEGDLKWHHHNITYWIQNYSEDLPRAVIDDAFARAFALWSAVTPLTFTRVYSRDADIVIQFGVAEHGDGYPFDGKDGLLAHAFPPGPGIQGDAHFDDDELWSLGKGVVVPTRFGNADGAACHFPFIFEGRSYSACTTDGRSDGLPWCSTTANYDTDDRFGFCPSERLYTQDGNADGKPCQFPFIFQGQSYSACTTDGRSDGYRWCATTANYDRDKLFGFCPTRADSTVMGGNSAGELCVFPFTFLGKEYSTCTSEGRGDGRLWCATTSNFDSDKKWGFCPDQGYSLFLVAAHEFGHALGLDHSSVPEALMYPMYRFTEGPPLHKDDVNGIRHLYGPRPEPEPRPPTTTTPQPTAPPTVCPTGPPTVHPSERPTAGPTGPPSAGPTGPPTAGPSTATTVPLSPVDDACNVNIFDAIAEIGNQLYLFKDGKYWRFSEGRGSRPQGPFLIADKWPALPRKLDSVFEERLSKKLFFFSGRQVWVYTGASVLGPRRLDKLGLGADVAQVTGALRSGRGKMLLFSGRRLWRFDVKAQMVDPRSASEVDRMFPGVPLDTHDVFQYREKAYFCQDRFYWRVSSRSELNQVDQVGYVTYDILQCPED
Chain of 72 kDa type IV collagenase (P08253 whole entry): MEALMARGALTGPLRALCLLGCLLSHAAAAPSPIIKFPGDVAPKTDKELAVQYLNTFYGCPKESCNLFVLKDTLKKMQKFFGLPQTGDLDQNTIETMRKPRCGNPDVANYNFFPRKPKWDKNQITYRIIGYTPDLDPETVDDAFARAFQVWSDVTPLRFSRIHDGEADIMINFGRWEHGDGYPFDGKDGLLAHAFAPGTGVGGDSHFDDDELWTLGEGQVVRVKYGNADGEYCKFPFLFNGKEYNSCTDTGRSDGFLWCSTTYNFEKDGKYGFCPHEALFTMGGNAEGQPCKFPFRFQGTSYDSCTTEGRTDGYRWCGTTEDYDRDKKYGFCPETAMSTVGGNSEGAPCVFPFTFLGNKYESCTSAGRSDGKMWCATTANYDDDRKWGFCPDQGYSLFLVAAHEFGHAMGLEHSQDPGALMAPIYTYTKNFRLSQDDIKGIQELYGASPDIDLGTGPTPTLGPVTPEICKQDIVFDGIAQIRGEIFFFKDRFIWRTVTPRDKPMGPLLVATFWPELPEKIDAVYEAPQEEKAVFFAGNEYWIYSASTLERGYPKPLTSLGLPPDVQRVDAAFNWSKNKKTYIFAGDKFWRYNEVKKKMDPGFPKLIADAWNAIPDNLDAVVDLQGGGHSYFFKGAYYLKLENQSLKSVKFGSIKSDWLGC

Compound `O=S(=O)(CC1CS1)c1ccc(Oc2ccccc2)cc1` (stereo not given) returned an inhibition constant Ki in series [1] of 0.037 µM. The compound further registered a t1/2 in the series on Liver of 4.4 min.
In turn, `CS(=O)(=O)Oc1ccc(Oc2ccc(S(=O)(=O)CC3CS3)cc2)cc1` (racemic) returned a Ki on Stromelysin-1 [2] of 0.575 µM. For the same compound, the t1/2 in the series on Liver is given as 27 min.
In the case of `O=S(=O)(CC1CS1)c1ccc(Oc2ccc(F)cc2)cc1` (racemic), the Ki in [3] turned out to be 0.061 µM; in series [1] it was 0.58 µM; in series [4] it was 0.044 µM. The inhibition at Stromelysin-1 [5] turned out to be 50%; in series [6], 9%. Also, the inhibition result in series [7] was “inactive”. This compound gave a t1/2 in the series with Liver of 3.7 min.
Regarding `O=S(=O)(CC1CS1)c1ccc(Oc2cccc(F)c2)cc1` (racemic), the inhibition result in [8] is “inactive”. Also, the Ki is 27 µM at Stromelysin-1 [2], 0.45 µM in series [3], 0.19 µM in series [1] and 3 µM in series [4]. The compound further returned an inhibition in [9] of 7%. In the series with Liver, the t1/2 is listed as 2.9 min.
For the compound `O=S(=O)(CC1CS1)c1ccc(Oc2ccc(I)cc2)cc1` (racemic), the inhibition entry in [10] and in series [12] was “inactive” each time. The values for the Ki in series [3] and in series [4] were 0.6 µM and 0.29 µM, respectively. On Stromelysin-1 [11], this compound had an inhibition of 18%. The compound further registered a t1/2 in the series with Liver of 7.2 min.
For `O=S(=O)(CC1CS1)c1ccc(Oc2ccc(CO)cc2)cc1` (racemic), the Ki on Stromelysin-1 [2] is 4.1 µM; in [3], 0.078 µM; in series [1], 0.215 µM; in series [4] it was 0.39 µM; on Interstitial collagenase, 205 µM; at Matrilysin it was 48.5 µM. In addition, the Drug metabolism result in the series on Liver microsomes [13], in the series on Liver microsomes [14] and with Liver microsomes [15] was “Active” in each case. The compound also returned a t1/2 in the series with Liver of 13 min.
For the compound `O=S(=O)(CC1CS1)c1ccc(Oc2ccc(O)cc2)cc1` (racemic), the Ki was 2.2 µM at Stromelysin-1 [2]; 0.006 µM in [3]; 0.09 µM in [1]; 128 µM on Interstitial collagenase; 31 µM on Matrilysin. In the series on Liver, this compound displayed a t1/2 of 23 min.
`CC(C)Oc1ccc(Oc2ccc(S(=O)(=O)CC3CS3)cc2)cc1` (racemic): the Ki at Stromelysin-1 [2] stood at 17 µM; in [3], 0.3 µM; in series [1] it was 0.28 µM; in [4], 0.47 µM. Further, the inhibition in series [16] is 11%; in series [6], 30%.
As to `COCOc1ccc(Oc2ccc(S(=O)(=O)CC3CS3)cc2)cc1` (racemic), the Ki is 12 µM at Stromelysin-1 [2], 0.18 µM in [3], 0.14 µM in series [1] and 0.16 µM in series [4]. Further, the values for the inhibition in [17] and in [9] were 19% and 6%, respectively. In addition, the t1/2 in the series with Liver was determined as 7.7 min.
On to `O=S(=O)(CC1CS1)c1ccc(Oc2ccc(OC(F)(F)F)cc2)cc1` (racemic), for which the Ki in series [3] turned out to be 0.11 µM; in series [1], 5.08 µM; in series [4], 0.93 µM. The inhibition at Stromelysin-1 [5] was determined as 14%; in series [7] it was 3%. In addition, in series [6], the inhibition entry is “inactive”. Also, in the series with Liver, the t1/2 was 7.3 min.

One may read the Ki as the dissociation constant of the complex between target and ligand, obtained from inhibition or displacement. By inhibition is commonly meant the percentage by which the read-out fell short of the control.
